In publication PMC5729429, “Gimatecan exerts potent antitumor activity against gastric cancer in vitro and in vivo via AKT and MAPK signaling pathways” (Journal of Translational Medicine, 2017):
Where a name gives a salt, the structure may show the parent alone.

Assays:
[1] = system: NCI-N87 cells; assay: Cell viability assay (CCK-8), NCI-N87; assay type: cell-based; settings: Homo sapiens, Fig. 1a 48 h exposure, 0–1 µM, read-out: IC50 antiproliferative effect
Procedure: Human GC cell lines SNU-1, HGC27 and MGC803 were purchased from Peking Union Medical College, and the NCI-N87 cell line was a gift from You-yong Lv, Ph.D. (Peking University Cancer Hospital and Institute). Cells were cultured in RPMI 1640 medium and Dulbecco’s Modified Eagle Medium (Gibco-BRL, MD, USA), respectively, supplemented with 10% fetal bovine serum (Gibco-BRL), 100 U/ml penicillin (Gibco-BRL) and […] streptomycin (Gibco-BRL). Cells were incubated in a humidified incubator (37 °C) supplemented with 5% CO2.
SNU-1, HGC27, MGC803 and NCI-N87 cells (5000 cells/well) were seeded in 96-well plates and incubated overnight in complete medium, followed by exposure to gimatecan (0–1 µM) or irinotecan (0–1 µM) for 24, 48, or 72 h. Cell viability was measured using a Cell Counting Kit-8 (Dojindo, Kumamoto, Japan) according to the manufacturer’s instructions. Absorbance at 450 nm was measured using a microplate spectrophotometer. All experiments were repeated at least three times.

[2] = system: DNA TopI; assay: Western blot of DNA TopI expression in GC cells; assay type: cell-based, human; settings: SNU-1, HGC27 and NCI-N87; 48 h; gimatecan at 100 nM or more; irinotecan even at high concentrations
Procedure: SNU-1, HGC27 and NCI-N87 cells were starved in serum-free medium overnight, exposed to inhibitors for 48 h and harvested at 70–80% confluence. Total protein was extracted from cells or xenograft tissues on ice, using RIPA Lysis Buffer (Beyotime, Shanghai, China) supplemented with complete protease inhibitor and phosphatase inhibitor cocktail (Roche, Basel, Switzerland). Protein concentration was measured using a BCA Protein Assay Kit (Beyotime, Shanghai, China), and 50 μg protein from each sample was separated by 10% SDS-PAGE. After transfer to nitrocellulose membranes (GE Healthcare, Piscataway, NJ), samples were incubated with corresponding primary antibodies diluted in 5% BSA at 4 °C overnight and then with secondary antibodies at room temperature for 1 h. Proteins were visualized with a chemiluminescent detection system (GE Healthcare), using ECL plus Western blot reagents (GE Healthcare). Western-blotting bands were quantified and normalized by ImageJ software.
Cells were starved in serum-free medium overnight, exposed to gimatecan or irinotecan for 48 h and harvested at 70–80% confluence. Total protein of SNU-1 and NCI-N87 was extracted and the expression of TopI, pAKT, pMEK, pERK, p-p38 MAPK and pJNK2 were assessed by western-blotting followed by quantification and normalization by ImageJ. All data are mean ± SD of three independent experiments. Compared with controls, *p < 0.05

[3] = system: ABCG2; design: method as in earlier work; settings: ref 32 (Marchetti et al., 2007); cited from earlier work

| Structure (SMILES) | IC50 [1] | expression of DNA TopI [2] | resistance resulting from ABCG2 expression [3] |
| --- | --- | --- | --- |
| CCc1c2c(nc3ccc(OC(=O)N4CCC(N5CCCCC5)CC4)cc13)-c1cc3c(c(=O)n1C2)COC(=O)[C@]3(O)CC [Irinotecan, irinotecan hydrochloride] | 142 nM | little effect |  |
| CC[C@@]1(O)C(=O)OCc2c1cc1n(c2=O)Cc2c-1nc1ccccc1c2/C=N/OC(C)(C)C [Gimatecan, 7-t-butoxyiminomethylcamptothecin] | 88.2 nM | significantly inhibited | eight to tenfold |
